Broadly, the IC50 is the concentration that inhibits the measured activity by half.

Results on 21 compounds are retold here after US9145392B2, “Imidazole amines as modulators of kinase activity” (Merck Patent GmbH, priority 2011, dated 2015).

Molecules are shown by their SMILES. Some results are limits rather than exact numbers.

The target of one test is His-AKT (Full Length) (Homo sapiens (Human), UniProt P31749). The test can be described thus: AKT enzyme assay. In kind it is biochemical. The conditions noted are these: read-out: IC50 AKT. How it is done:
A TTP Mosquito liquid handling instrument is used to place 125n1 of the appropriate concentration of inhibitor in 100% DMSO (for a dose response curve calculation) into each well of a 384-well plate.
The reaction is incubated for 90 min at 25 C, and then stopped by the addition of 70 μl of Stop buffer (100 mM HEPES pH 7.5, 0.015% Brij-35, 10 mM EDTA (Sigma, E7889)).
The plate is read on a Caliper LC 3000 in an Off-Chip mobility shift assay format, using the following parameters for a 12-sipper chip: screening pressure −2.3 psi, upstream voltage −500, and downstream voltage −3000. These conditions cause unphosphorylated substrate and phosphorylated product peptide to resolve as separate peaks allowing direct measurement of percentage of conversion of substrate to product. The percent conversion can be plotted against concentration of inhibitor to produce a sigmoidal dose response curve, from which an IC50 can be calculated.

In the next test the target is P70S6K (T412E mutant) (Homo sapiens (Human), UniProt P23443, T412E). Briefly: P70S6K enzyme assay. The conditions noted are these: read-out: IC50 p70S6K. The class given is biochemical. How it is done:
P70S6K inhibitor compounds are diluted and plated in 96 well plates. […] The reaction is incubated for 90 min at 25° C., before the addition of 10 mM EDTA to stop the reaction. The proportion of substrate and product (phosphorylated) peptide is analysed on a Caliper Life Sciences Lab Chip 3000, using a pressure of −1.4 psi, and upstream and downstream voltages of −3000 and −700 respectively. Product peaks are resolved before substrate peaks on the resulting chromatograms.

Chain of His-AKT (Full Length) (P31749 whole entry): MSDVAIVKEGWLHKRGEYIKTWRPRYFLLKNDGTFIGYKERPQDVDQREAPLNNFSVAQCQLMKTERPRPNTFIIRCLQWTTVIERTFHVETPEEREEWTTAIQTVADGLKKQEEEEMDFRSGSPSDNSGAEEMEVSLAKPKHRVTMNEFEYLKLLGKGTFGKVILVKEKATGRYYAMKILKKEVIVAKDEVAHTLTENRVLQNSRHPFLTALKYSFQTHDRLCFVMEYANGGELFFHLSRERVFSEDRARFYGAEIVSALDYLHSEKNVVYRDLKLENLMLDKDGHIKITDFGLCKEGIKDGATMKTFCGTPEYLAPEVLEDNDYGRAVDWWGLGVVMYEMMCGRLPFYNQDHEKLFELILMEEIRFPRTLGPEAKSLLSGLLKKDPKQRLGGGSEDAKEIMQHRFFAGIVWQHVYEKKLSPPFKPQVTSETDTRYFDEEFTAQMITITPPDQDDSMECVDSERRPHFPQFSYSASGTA
Chain of P70S6K (T412E mutant) (P23443 whole entry T412E): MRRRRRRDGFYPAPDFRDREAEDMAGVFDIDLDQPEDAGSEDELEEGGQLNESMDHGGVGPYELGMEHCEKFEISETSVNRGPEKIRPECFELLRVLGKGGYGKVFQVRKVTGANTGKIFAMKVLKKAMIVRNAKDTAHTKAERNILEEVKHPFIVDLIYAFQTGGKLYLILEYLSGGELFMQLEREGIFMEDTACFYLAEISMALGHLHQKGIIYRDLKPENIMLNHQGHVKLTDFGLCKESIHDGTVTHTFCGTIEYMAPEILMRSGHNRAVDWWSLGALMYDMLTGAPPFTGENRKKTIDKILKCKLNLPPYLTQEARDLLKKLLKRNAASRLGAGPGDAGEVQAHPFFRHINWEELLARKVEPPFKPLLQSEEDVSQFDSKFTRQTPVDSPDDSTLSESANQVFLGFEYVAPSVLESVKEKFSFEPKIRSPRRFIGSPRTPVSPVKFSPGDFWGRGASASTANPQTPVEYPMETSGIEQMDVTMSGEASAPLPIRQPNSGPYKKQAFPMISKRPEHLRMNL

As to `Cn1cc(-c2ccc(F)c(C(F)(F)F)c2)nc1C1CCN(c2ncnc(N)c2-c2ccc(C#N)cc2)CC1` [Compound 17, 4-(4-Amino-6-{4-[4-(4-fluoro-3-trifluoromethyl-phenyl)-1-methyl-1H-imidazol-2-yl]-piperidin-1-yl}-pyrimidin-5-yl)-benzonitrile], the IC50 at His-AKT (Full Length) and at P70S6K (T412E mutant) was 2.7 nM throughout.
On to `CN(C)CCn1cc(-c2ccc(F)c(C(F)(F)F)c2)nc1C1CCN(c2ncnc(N)c2/C=C/C2CC2)CC1` [Compound 85, (E)-5-(2-Cyclopropylvinyl)-6-(4-(1-(2-(dimethylamino)ethyl)-4-(4-fluoro-3-(trifluoromethyl)phenyl)-1H-imidazol-2-yl)piperidin-1-yl)pyrimidin-4-amine], for which the IC50 at His-AKT (Full Length) was found to be 43 nM; at P70S6K (T412E mutant) it was 12 nM.
For `N#Cc1c(N)ncnc1N1CCC(c2nc(-c3ccc(F)c(C(F)(F)F)c3)cn2C[C@@H]2CCN2)CC1` [Compound 146, (S)-4-amino-6-(4-(1-(azetidin-2-ylmethyl)-4-(4-fluoro-3-(trifluoromethyl)phenyl)-1H-imidazol-2-yl)piperidin-1-yl)pyrimidine-5-carbonitrile] the same measures were 31 nM and 3.8 nM.
Turning to `CS(=O)(=O)c1cccc(-c2cn(CCN3CCC3)c(C3CCN(c4ncnc(N)c4C#N)CC3)n2)c1` [Compound 355, 4-Amino-6-{4-[1-(2-azetidin-1-yl-ethyl)-4-(3-methanesulfonyl-phenyl)-1H-imidazol-2-yl]-piperidin-1-yl}-pyrimidine-5-carbonitrile], the IC50 on His-AKT (Full Length) was 80 nM; at P70S6K (T412E mutant), 17 nM.
With `Cc1cc(-c2cn(CCN(C)C(C)C)c(C3CCN(c4ncnc(N)c4C#N)CC3)n2)ccc1F` [Compound 379, 4-Amino-6-(4-{4-(4-fluoro-3-methyl-phenyl)-1-[2-(isopropyl-methyl-amino)-ethyl]-1H-imidazol-2-yl}-piperidin-1-yl)-pyrimidine-5-carbonitrile], the IC50 on His-AKT (Full Length) was found to be 2.7 nM; at P70S6K (T412E mutant), 0.8 nM.
In the same order, the values of `CCC(C)(C)NCCn1cc(-c2ccc(F)c(C(F)(F)F)c2)nc1C1CCN(c2ncnc(N)c2C(N)=O)CC1` [Compound 388, 4-Amino-6-{4-[1-[2-(1,1-dimethyl-propylamino)-ethyl]-4-(4-fluoro-3-trifluoromethyl-phenyl)-1H-imidazol-2-yl]-piperidin-1-yl}-pyrimidine-5-carboxylic acid amide] are 13 nM and 2 nM.
For `COC(=O)c1ccc(-c2c(N)ncnc2N2CCC(c3nc(-c4ccc(F)c(C(F)(F)F)c4)cn3CCN3CCCC3)CC2)cc1` [Compound 223] the same measures were 78 nM and 21 nM.
In the same order, the values of `Cc1cc(-c2cn(CCNC(C)C)c(C3CCN(c4ncnc(N)c4C#N)CC3)n2)ccc1F` [Compound 380, 4-Amino-6-{4-[4-(4-fluoro-3-methyl-phenyl)-1-(2-isopropylamino-ethyl)-1H-imidazol-2-yl]-piperidin-1-yl}-pyrimidine-5-carbonitrile] are 2.9 nM and 1.3 nM.
With `Nc1cc(N2CCC(c3nc(-c4ccc(F)c(C(F)(F)F)c4)cn3CCN3CCCC3)CC2)ncn1` [Compound 214], the values for the 50% inhibitory concentration (IC50) at His-AKT (Full Length) and on P70S6K (T412E mutant) were 180 nM and 50 nM, respectively.
Regarding `NC(=O)c1c(N)ncnc1N1CCC(c2nc(-c3ccc(F)c(C(F)(F)F)c3)cn2CCNCC2CC2)CC1` [Compound 359, 4-Amino-6-{4-[1-[2-(cyclopropylmethyl-amino)-ethyl]-4-(4-fluoro-3-trifluoromethyl-phenyl)-1H-imidazol-2-yl]-piperidin-1-yl}-pyrimidine-5-carboxylic acid amide], the values for the IC50 at His-AKT (Full Length) and on P70S6K (T412E mutant) were 12 nM and 2.7 nM, respectively.
For `CS(=O)(=O)c1cccc(-c2cn(CCN3CCC3)c(C3CCN(c4ncnc(N)c4C(N)=O)CC3)n2)c1` [Compound 356, 4-Amino-6-{4-[1-(2-azetidin-1-yl-ethyl)-4-(3-methanesulfonyl-phenyl)-1H-imidazol-2-yl]-piperidin-1-yl}-pyrimidine-5-carboxylic acid amide] the same measures were 560 nM and 80 nM.
For `Nc1ncnc(N2CCC(c3nc(-c4ccc(C(F)(F)F)c(F)c4)cn3CCN3CCCC3)CC2)c1C1CCC1` [Compound 258] the same measures were 380 nM and 36 nM.
On to `CCc1c(N)ncnc1N1CCC(c2nc(-c3ccc(F)cc3)cn2CCN2CCC3(COC3)C2)CC1` [Compound 201, 5-Ethyl-6-(4-{4-(4-fluoro-phenyl)-1-[2-(2-oxa-6-aza-spiro[3.4]oct-6-yl)-ethyl]-1H-imidazol-2-yl}-piperidin-1-yl)-pyrimidin-4-ylamine], for which the IC50 was greater than 1000 nM on His-AKT (Full Length) and 16 nM at P70S6K (T412E mutant).
For the compound `N#Cc1c(N)ncnc1N1CCC(c2nc(-c3ccc(F)c(F)c3)cn2CCN2CCCC2)CC1` [Compound 306, 4-amino-6{4-(3,4-difluorophenyl-1-2-(pyrrolidin-1-yl-ethyl)-1H-imidazol-2-yl]-piperidin-1-yl}-pyrimidin-5-carbonitrile], the results for the IC50 on His-AKT (Full Length) and on P70S6K (T412E mutant) were 7.6 nM and 2 nM, respectively.
For `CNCCn1cc(-c2ccnc(C(F)(F)F)c2)nc1C1CCN(c2cc(N)ncn2)CC1` [Compound 167, 6-(4-(1-(2-(methylamino)ethyl)-4-(2-(trifluoromethyl)pyridin-4-yl)-1H-imidazol-2-yl)piperidin-1-yl)pyrimidin-4-amine] the same measures were greater than 1000 nM and 130 nM.
Consider `Cc1cc(-c2cn(CCNC(C)(C)C)c(C3CCN(c4ncnc(N)c4-c4cn[nH]c4)CC3)n2)ccc1F` [Compound 165, 6-(4-(1-(2-(tert-butylamino)ethyl)-4-(4-fluoro-3-methylphenyl)-1H-imidazol-2-yl)piperidin-1-yl)-5-(1H-pyrazol-4-yl)pyrimidin-4-amine], for which the IC50 at His-AKT (Full Length) is 5.5 nM; on P70S6K (T412E mutant) it was 2.8 nM.
In the same order, the values of `Nc1ncnc(N2CCC(c3nc(-c4cccc(F)c4)cn3CCN3CCCC3)CC2)c1Br` [Compound 228] are 5.9 nM and 1.4 nM.
Turning to `N#Cc1c(N)ncnc1N1CCC(c2nc(-c3ccc(OC(F)F)cc3)cn2CCN2CCC2)CC1` [Compound 76, 4-Amino-6-{4-[1-(2-azetidin-1-yl-ethyl)-4-(4-difluoromethoxy-phenyl)-1H-imidazol-2-yl]-piperidin-1-yl}-pyrimidine-5-carbonitrile], the IC50 on His-AKT (Full Length) was 479 nM; at P70S6K (T412E mutant) it was 2.1 nM.
In the same order, the values of `Cc1cc(-c2cn(CCO)c(C3CCN(c4ncnc(N)c4-c4cn[nH]c4)CC3)n2)ccc1F` [Compound 160, 2-(2-(1-(6-amino-5-(1H-pyrazol-4-yl)pyrimidin-4-yl)piperidin-4-yl)-4-(4-fluoro-3-methylphenyl)-1H-imidazol-1-yl)ethanol] are 670 nM and 6.7 nM.
In the same order, the values of `N#Cc1c(N)ncnc1N1CCC(c2nc(-c3cccc(F)c3)cn2CCN2CCCC2)CC1` [Compound 309] are 21 nM and 2.6 nM.
For `CCc1c(N)ncnc1N1CCC(c2nc(-c3ccnc(C(C)C)c3)cn2CCN2CCC2)CC1` [Compound 179, 6-(4-(1-(2-(azetidin-1-yl)ethyl)-4-(2-isopropylpyridin-4-yl)-1H-imidazol-2-yl)piperidin-1-yl)-5-ethylpyrimidin-4-amine] the same measures were 4.2 nM and 1.9 nM.
